Test results published in patent US8569495B2, “Anthelmintic agents and their use” (Intervet International B.V., priority 2007, dated 2013).
Like-named read-outs stand apart in the source and are kept apart here.

How the values were obtained:
Haemonchus contortus [1] = test: Efficacy against Haemonchus contortus in sheep; assay type: in vivo; conditions: single treatment 35 days after infection, necropsy 7 days after treatment
Method: Anthelmintic effects of compounds of this invention were tested in vivo using Haemonchus contortus in sheep. The sheep were orally infected with approximately 5,000 third-stage larvae of Haemonchus contortus. Thirty-five days after infection, the sheep in the treatment groups were treated once orally or subcutaneously at a dose of 2, 5, 10, and/or 50 mg per kg bodyweight. Seven days after treatment, the sheep were necropsied, and the worm burden in the abomasum was determined. The efficacy was defined as the reduction of the mean worm count in the infected sheep of the treatment groups in comparison to the infected sheep in the untreated negative control group.

[2] = test system: Haemonchus contortus (L4), isolate resistant to benzimidazoles and ivermectin and anthelmintic-sensitive isolate; test: In vitro resistance-breaking activity against Haemonchus contortus L4, resistant versus sensitive isolate (MEC); conditions: isolate resistant to benzimidazoles and ivermectin vs sensitive isolate
Method: Anthelmintic resistance-breaking effects of compounds of this invention were tested in vitro using larval stage 4 (“L4”) of the parasitic nematode species Haemonchus contortus (Barber's pole worm in ruminants). One isolate of Haemonchus contortus with a resistance to benzimidazoles and ivermectin was tested in comparison to the anthelmintic-sensitive isolate of Haemonchus contortus. When conducting these experiments, various concentrations of the compounds were incubated in 96-well microtiter plates. Parasites were then distributed at 20 larvae per well. The anthelmintic effects were classified by microscopic examination. The microscopic examination included assessing mortality, damage, motility, progression of development, and neutral red uptake by the larvae in comparison to a DMSO-control and standard anthelmintics. The anthelmintic effects were defined by the minimum effective concentration (“MEC”).

[3] = test system: Ascaridia galli (L3) and Oesophagostomum dentatum (L3 and L4); test: In vitro anthelmintic activity against larval stages of Ascaridia galli and Oesophagostomum dentatum (MEC); conditions: Ascaridia galli, A. galli L3, O. dentatum L3 and L4, 20 larvae per well, microscopic examination
Haemonchus contortus [4] = test: Efficacy against Haemonchus contortus in jirds; assay type: in vivo, jirds (Meriones unguiculatus); conditions: single treatment 10 days after infection, necropsy 3 days after treatment
Method: Anthelmintic effects of compounds of this invention were tested in vivo using Haemonchus contuortus in jirds (Meriones unguiculatus). The jirds were orally infected with approximately 750-3,000 third-stage larvae of Haemonchus contortus. Ten days after infection, the jirds in the treatment groups were treated once orally or subcutaneously at a dose of 2, 10, and/or 50 mg per kg bodyweight. Three days after treatment, the jirds were necropsied, and the larvae burden in the stomach was determined. The efficacy was defined as the reduction of the mean larvae count in the jirds of the treatment groups in comparison to the infected jirds in the untreated negative control group. All the compounds of this invention tested using this protocol reduced the Haemonchus contortus count in both the oral and subcutaneous experiments.

[5] = test system: Trichostrongylus colubriformis; test: Efficacy against Trichostrongylus colubriformis in cattle; assay type: in vivo; conditions: 10 mg/kg, oral, single treatment 32 days after infection, necropsy 7 days after treatment
Method: (§1) Anthelmintic effects of compounds of this invention were tested in vivo using Haemonchus contortus and Trichostrongylus colubriformis in cattle. The cattle were orally infected with approximately 10,000 third-stage larvae of Haemonchus contortus and approximately 30,000 third-stage larvae of Trichostrongylus colubriformis. Thirty-two days after infection, the cattle in the treatment group were treated once orally with the compound of Example 11 at a dose of 10 mg/kg bodyweight. Seven days after treatment, the cattle were necropsied, and the worm burden in the abomasum and the small intestine was determined. The efficacy was defined as the reduction of the mean worm count in the infected cattle of the treatment group in comparison to the infected cattle in the untreated negative control group.

Haemonchus contortus [6] = test: Efficacy against Haemonchus contortus in cattle; assay type: in vivo; conditions: 10 mg/kg, oral, single treatment 32 days after infection, necropsy 7 days after treatment
Method: as §1

[7] = in vitro, read-out: minimum effective concentration (MEC) against one or more of the tested nematodes
[8] = in vitro, read-out: minimum effective concentration (MEC) against two or more of the tested nematodes
[9] = read-out: minimum effective concentration (MEC) against two or more of the tested nematodes, in vitro

SMILES	minimal effective concentration [3, 7] [µM]	minimal effective concentration [3, 8] [µM]	further results
CN(CC1CCN(c2ccc(C(F)(F)F)cc2)CC1)C(=O)[C@H]1CC[C@H](Nc2ccc([N+](=O)[O-])c(C(F)(F)F)c2)CC1 [Example 57, trans-N-methyl-4-(4-nitro-3-(trifluoromethyl)phenylamino)-N-((1-(4-(trifluoromethyl)phenyl)piperidin-4-yl)methyl)cyclohexanecarboxamide]			% Reduction in H. contortus count (Haemonchus contortus [1]; 10 mg/kg, oral): 83%; % Reduction in H. contortus count (Haemonchus contortus [1]; 10 mg/kg, subcutaneous): 0%; activity against the resistant isolate compared with the sensitive isolate of Haemonchus contortus [2]: same activity
COc1ccc(N2CCN(C(=S)COC3CCC(Nc4ccc([N+](=O)[O-])c(C(F)(F)F)c4)CC3)CC2)cc1OC (stereo not shown) [Example 207]	< 1		
O=[N+]([O-])c1ccc(NC2CCC(CCC(=S)N3CCN(c4ccc(C(F)(F)F)cc4)CC3)CC2)cc1C(F)(F)F (stereo not shown) [Example 213]		< 1	
N#Cc1ccc(NC2CCC(OCC(=S)N3CCN(c4ccc(Cl)cc4)CC3)CC2)cc1C(F)(F)F (stereo not shown) [Example 209]	< 1		
O=C(COC1CCC(Nc2ccc([N+](=O)[O-])c(C(F)(F)F)c2)CC1)N1CCCN(c2ccc(C(F)(F)F)cc2)CC1 (stereo not shown) [Example 149]	< 1	< 1	
O=C(COC1CCC(Nc2ccc([N+](=O)[O-])c(C(F)(F)F)c2)CC1)N1CC2CC1CN2c1ccc(C(F)(F)F)cc1 (stereo not shown) [Example 146]	< 1		
Cc1cc(N[C@H]2CC[C@H](OCC(=O)N3CCN(c4ccc(Cl)cc4)CC3)CC2)ccc1[N+](=O)[O-] [Example 241]	< 1		
CC(C)(C)c1ccc(N2CCN(C(=O)COC3CCC(Nc4ccc(SC(F)(F)F)cc4)CC3)CC2)cc1 (stereo not shown) [Example 103]		< 1	
CC(C)(C)c1ccc(N2CCN(CCOC3CCC(Nc4ccc([N+](=O)[O-])c(C(F)(F)F)c4)CC3)CC2)cc1 (stereo not shown) [Example 116]	< 1		
CCOc1ccc(N2CCC(CNC(=O)C3CCC(Nc4ccc([N+](=O)[O-])c(C(F)(F)F)c4)CC3)CC2)cc1 (stereo not shown) [Example 125]	< 1		
CCCc1ccc(C2CCN(C(=O)COC3CCC(Nc4ccc(C#N)c(C(F)(F)F)c4)CC3)CC2)cc1 (stereo not shown) [Example 168]		< 1	
Cc1ccc(N2CCC(CNC(=O)C3CCC(Nc4ccc([N+](=O)[O-])c(C(F)(F)F)c4)CC3)CC2)cc1 (stereo not shown) [Example 123]	< 1		
O=C(CO[C@H]1CC[C@H](Nc2ccc([N+](=O)[O-])c(C(F)(F)F)c2)CC1)N1CCN(c2ccc(OCc3ccc(C(F)(F)F)cc3)cc2)CC1 [Example 20, 2-[trans-4-(4-nitro-3-trifluoromethyl-phenylamino)-cyclohexyloxy]-1-{4-[4-(4-trifluoromethyl-benzyloxy)-phenyl]-piperazin-1-yl}-ethanone]			minimal effective concentration [3, 9]: < 1 µM
Cc1ccc(N2CCN(C(=O)COC3CCC(Nc4ccc([N+](=O)[O-])c(C(F)(F)F)c4)CC3)CC2)c(C)c1 (stereo not shown) [Example 67]	< 1		
O=[N+]([O-])c1ccc(NC2CCC(OCCN3CCN(c4ccc(C(F)(F)F)cc4)CC3)CC2)cc1C(F)(F)F (stereo not shown) [Example 119]	< 1		
Cc1ccc(N2CCN(C(=S)COC3CCC(Nc4ccc([N+](=O)[O-])c(C(F)(F)F)c4)CC3)CC2)cc1 (stereo not shown) [Example 222]	< 1		
O=C(CO[C@H]1CC[C@H](Nc2ccc([N+](=O)[O-])c(C(F)(F)F)c2)CC1)N1CCN(c2ccc(C(F)(F)F)cc2)CC1 [Example 11, 2-[trans-4-(4-nitro-3-trifluoromethyl-phenylamino)-cyclohexyloxy]-1-[4-(4-trifluoromethyl-phenyl)-piperazin-1-yl]-ethanone]			% Reduction in H. contortus count (Haemonchus contortus [1]; 2 mg/kg, oral): 0%; % Reduction in H. contortus count (Haemonchus contortus [1]; 5 mg/kg, oral): 95%; % Reduction in H. contortus count (Haemonchus contortus [1]; 10 mg/kg, oral): 100%; % Reduction in H. contortus count (Haemonchus contortus [4]; 2 mg/kg, oral): 84%; % Reduction in H. contortus count (Haemonchus contortus [4]; 2 mg/kg, subcutaneous): 69%; % Reduction in H. contortus count (Haemonchus contortus [4]; 50 mg/kg, oral): 98%; % Reduction in H. contortus count (Haemonchus contortus [4]; 50 mg/kg, subcutaneous): 99%; Efficacy against T. colubriformis (reduction of the mean worm count) [5]: 99%; activity against the resistant isolate compared with the sensitive isolate of Haemonchus contortus [2]: same activity; Efficacy against H. contortus (reduction of the mean worm count) (Haemonchus contortus [6]): 98%
O=C(COC1CCC(Nc2ccc(OC(F)(F)F)c(C(F)(F)F)c2)CC1)N1CCN(c2ccc(Cl)cc2)CC1 (stereo not shown) [Example 90]	< 1		
CN(c1ccc([N+](=O)[O-])c(C(F)(F)F)c1)[C@H]1CC[C@H](OCC(=O)N2CCN(c3ccc(C(F)(F)F)cc3)CC2)CC1 [Example 12, 2-{trans-4-[methyl(4-nitro-3-trifluoromethyl-phenyl)-amino]-cyclohexyloxy}-1-[4-(4-trifluoromethyl-phenyl)-piperazin-1-yl]-ethanone]			% Reduction in H. contortus count (Haemonchus contortus [1]; 10 mg/kg, oral): 53%; % Reduction in H. contortus count (Haemonchus contortus [1]; 10 mg/kg, subcutaneous): 0%
CC(C)(C)c1ccc(N2CCC(CNC(=O)C3CCC(Nc4ccc([N+](=O)[O-])c(C(F)(F)F)c4)CC3)CC2)cc1 (stereo not shown) [Example 122]	< 1	< 1	
CC(C)(C)c1ccc(N2CCN(C(=O)COC3CCC(Oc4ccc([N+](=O)[O-])c(C(F)(F)F)c4)CC3)CC2)cc1 (stereo not shown) [Example 260]		< 1	
O=C(CO[C@H]1CC[C@H](Nc2ccc([N+](=O)[O-])c(C(F)(F)F)c2)CC1)N1CCC(c2ccc(F)cc2F)CC1 [Example 22, 1-[4-(2,4-difluoro-phenyl)-piperidin-1-yl]-2-[trans-4-(4-nitro-3-trifluoromethyl-phenylamino)-cyclohexyloxy]-ethanone]			minimal effective concentration [3, 9]: < 1 µM
CC(C)COc1ccc(N2CCN(C(=O)COC3CCC(Nc4ccc([N+](=O)[O-])c(C(F)(F)F)c4)CC3)CC2)cc1 (stereo not shown) [Example 82]		< 1	
O=C(NCC1CCC(Nc2ccc([N+](=O)[O-])c(C(F)(F)F)c2)CC1)C1CCN(c2ccc(Cl)cc2)CC1 (stereo not shown) [Example 107]	< 7		
N#Cc1ccc(NC2CCC(OCC(=O)N3CCCN(c4ccc(SC(F)(F)F)cc4)CC3)CC2)cc1C(F)(F)F (stereo not shown) [Example 160]		< 1	
CN(c1ccc([N+](=O)[O-])c(C(F)(F)F)c1)C1CCC(OCC(=S)N2CCN(c3ccc(C(F)(F)F)cc3)CC2)CC1 (stereo not shown) [Example 218]			minimal effective concentration [3, 9]: < 1 µM
